Like-named read-outs stand apart in the source and are kept apart here.
Key:
human p38 kinase alpha = molecular target: T1, human p38 kinase alpha (Homo sapiens, UniProt Q16539); test: p38 kinase in vitro assay, phosphorylation of biotinylated PHAS-I with gamma 32P-ATP; format: biochemical
T1 construct: The coding region of the human p38a cDNA was obtained by PCR-amplification from RNA isolated from the human monocyte cell line THP.1; GST (N); made in house; host or cells: E. coli DH10B
How it was run: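 Radiometric filter-capture read-out: streptavidin plates trap biotin-PHAS-I labelled by activated (MKK6) human p38α from γ-32P-ATP. Buffer 25 mM HEPES pH 7.5, 10 mM magnesium acetate, 50 μM cold ATP; reactions 1 h or overnight at 30 °C; inhibitors 10-fold dilutions 100 to 0.001 μM, triplicates, 1% DMSO.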

TNF-α [1] = test: Rat assay: LPS-challenged rats, serum TNF-α by ELISA; format: in vivo; details: Rattus norvegicus, po, 3 mpk oral gavage, read-out: Rat LPS Model % inhib @ dose @ predose time
TNF-α [2] = test: LPS stimulation of TNF production by U937 cells; format: cell-based, human
How it was run: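 PMA-differentiated human U937 cells (20 ng/ml PMA, 24 h, then 24-48 h rest) at 2 million cells/ml, 0.1% DMSO final, stimulated with E. coli LPS (100 ng/ml final) for 4 h at 37° C. TNF-α in medium measured by ELISA; IC50 in μM.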

TNF alpha = test: Mouse model of LPS-induced TNF alpha production; format: in vivo; details: for inhibition in vivo at 100 mg/kg: 100 mpk oral gavage
Description: TNF alpha was induced in 10-12 week old BALB/c female mice by tail vein injection with 100 ng lipopolysaccharide (from S. Typhosa) in 0.2 ml saline. One hour later mice were bled from the retroorbital sinus and TNF concentrations in serum from clotted blood were quantified by ELISA.
Efficacy was determined at each time point as percent inhibition of serum TNF levels relative to LPS injected mice that received vehicle only
wherein in the dose is milligram per kilogram (mpk) administered by oral gavage and the predose time indicates the number of hours before LPS challenge when the compound is administered.

[3] = molecular target: T2, human GST-p38 kinase alpha (Homo sapiens, UniProt Q16539); test: p38 kinase in vitro assay, second format, phosphorylation of EGFRP with 33P-ATP; format: biochemical; details: EGFRP assay procedure
T2 construct: The coding region of the human p38a cDNA was obtained by PCR-amplification from RNA isolated from the human monocyte cell line THP.1; made in house; host or cells: E. coli DH10B
How it was run: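 Activated human GST-p38α (pre-activated with GST-MKK6, 1 h, 30 °C) phosphorylates EGFR 21-mer peptide (200 μM) with 50 μM ATP plus γ-33P-ATP, pH 7.5, 60 min at room temperature. Unreacted ATP removed by AG 1×8 resin; supernatant scintillation-counted.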

[4] = read-out: P38 alpha kinase IC50
[5] = Homo sapiens, U-937, TNF production, LPS-stimulated human U937 cells, read-out: U937 Cell IC50
[6] = Mus musculus, 30 mpk oral gavage, -6h before LPS, read-out: Mouse LPS Model % TNF inhib @ dose @ predose time
[7] = mouse, oral, 1h before LPS, 30 mpk, read-out: mLPS 1h, 30 mpk percent inhibition
[8] = Homo sapiens, U-937, LPS-stimulated U937 cells, read-out: U937 IC50
[9] = p38α in vitro, read-out: p38^2 IC50
[10] = Mus musculus, -6h before LPS, read-out: Mouse LPS Model % TNF inhib @ dose @ predose time
[11] = p38α in vitro, PHAS-I assay procedure, read-out: p38^1 IC50

T1 sequence (Q16539 whole entry): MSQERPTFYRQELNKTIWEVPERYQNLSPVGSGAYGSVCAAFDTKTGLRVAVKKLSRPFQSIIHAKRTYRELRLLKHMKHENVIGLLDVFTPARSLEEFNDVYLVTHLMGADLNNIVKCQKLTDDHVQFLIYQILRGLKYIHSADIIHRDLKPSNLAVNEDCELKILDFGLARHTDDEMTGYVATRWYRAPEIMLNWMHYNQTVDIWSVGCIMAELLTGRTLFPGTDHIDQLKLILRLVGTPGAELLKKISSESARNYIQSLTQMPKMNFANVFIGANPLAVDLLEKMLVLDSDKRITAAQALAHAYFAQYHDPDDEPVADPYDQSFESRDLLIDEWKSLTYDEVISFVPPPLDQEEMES
T2 sequence (Q16539 whole entry): as above

SMILES	inhibition in vivo at 30 mg/kg (TNF alpha; [7]) [%]	IC50 (TNF-α [2]; [8]) [nM]	IC50 [3, 9] [nM]	also measured
C[C@@H](NS(=O)(=O)c1ccc(F)cc1)c1[nH]nc(-c2ccc(F)cc2)c1-c1ccncc1 [Example B-0385]	–	–	–	IC50 (human p38 kinase alpha; [4]): 57 nM; inhibition in vivo at 3 mg/kg (TNF-α [1]; -4 h, -4h before LPS): 0%; IC50 (TNF-α [2]; [5]): 900 nM; inhibition in vivo at 30 mg/kg (TNF alpha; [6]): 30%
c1ccc(-c2n[nH]cc2-c2ccncc2)cc1 [Example A-236, 4-(3-phenyl-1H-pyrazol-4-yl)pyridine]	94	–	–	IC50 ([3]; p38^2 IC50, p38α in vitro): 237 nM
Cn1cc(-c2ccnc(F)c2)c(-c2ccc(F)c(F)c2)n1 [Example A-260, 4-[3-(3,4-difluorophenyl)-1-methyl-1H-pyrazol-4-yl]-2-fluoropyridine]	79	1280	230	–
CCC(CO)Nc1cc(-c2c[nH]nc2-c2ccc(F)cc2)ccn1 (stereo not shown) [Example A-213, 2-[[4-[3-(4-fluorophenyl)-1H-pyrazol-4-yl]-2-pyridinyl]amino)-1-butanol]	57	–	220	–
Cn1cc(-c2ccncc2)c(-c2ccc(C(F)(F)F)cc2)n1 [Example A-252, 4-[1-methyl-3-[4-(trifluoromethyl)phenyl]-1H-pyrazol-4-yl]pyridine]	75	1200	774	–
Fc1ccc(-c2n[nH]cc2-c2ccnc(NCCn3ccnc3)c2)cc1 [Example A-268, 4-[3-(4-fluorophenyl)-1H-pyrazol-4-yl]-N-[2-(1H-imidazol-1-yl)ethyl]-2-pyridinamine]	11	7.4	< 100	–
Cn1cc(-c2ccncc2)c(-c2ccc3c(c2)OCO3)n1 [Example A-231, 4-[3-(1,3-benzodioxol-5-y)-1-methyl-1H-pyrazol-4-yl]pyridine]	94	322	174	–
Fc1cc(-c2c[nH]nc2-c2ccc(Cl)cc2)ccn1 [Example A-240, 4-[3-(4-chlorophenyl)-1H-pyrazol-4-yl]-2-fluoropyridine]	85	–	961	–
O=S(=O)(Cc1ccccc1)NCc1[nH]nc(-c2ccc(F)cc2)c1-c1ccncc1 [Example B-0120]	–	–	–	IC50 (human p38 kinase alpha; [4]): 8 nM; inhibition in vivo at 3 mg/kg (TNF-α [1]; -4 h, -4h before LPS): 70%; IC50 (TNF-α [2]; [5]): 210 nM; inhibition in vivo at 100 mg/kg (TNF alpha; [10]): 77%
Cc1cnccc1-c1cn(C)nc1-c1ccc(F)cc1 [Example A-259, 4-[3-(4-fluorophenyl)-1-methyl-1H-pyrazol-4-yl]-3-methylpyridine]	62	757	170	–
Cn1cc(-c2ccncc2)c(-c2ccc(I)cc2)n1 [Example A-251, 4-[3-(4-iodophenyl)-1-methyl-1H-pyrazol-4-yl]pyridine]	87	–	637	–
CN(C)CCn1cc(-c2ccncc2)c(-c2ccc(F)cc2)n1 [Example A-261, 3-(4-fluorophenyl)-N,N-dimethyl-4-(4-pyridinyl)-1H-pyrazole-1-ethanamine]	92	254	8	–
Fc1cccc(-c2n[nH]cc2-c2ccncc2)c1 [Example A-227, 4-[3-(3-fluorophenyl)-1H-pyrazol-4-yl]pyridine]	96	–	60	–
Cc1cnccc1-c1c[nH]nc1-c1ccc(F)cc1 [Example A-258, 4-[3-(4-fluorophenyl)-1H-pyrazol-4-yl]-3-methylpyridine]	68	1210	480	–
Cn1cc(-c2ccncc2)c(-c2ccc(F)c(F)c2)n1 [Example A-242, 4-[3-(3,4-difluorophenyl)-1-methyl-1H-pyrazol-4-yl]pyridine]	87	–	47	–
Fc1ccc(-c2n[nH]cc2-c2ccncc2)cc1F [Example A-239, 4-[3-(3,4-difluorophenyl)-1H-pyrazol-4-yl]pyridine]	87	–	34	–

SMILES	inhibition in vivo at 30 mg/kg (TNF alpha; [7]) [%]	IC50 (TNF-α [2]; [8]) [nM]	IC50 [3, 9] [nM]	also measured
C[C@@H](NC(=O)c1ccccc1I)c1[nH]nc(-c2ccc(F)cc2)c1-c1ccncc1 [Example B-0354]	–	–	–	IC50 (human p38 kinase alpha; [4]): 1000 nM; inhibition in vivo at 3 mg/kg (TNF-α [1]; -4 h, -4h before LPS): 54%; IC50 (TNF-α [2]; [5]): 660 nM; inhibition in vivo at 30 mg/kg (TNF alpha; [6]): 51%
Cc1c(-c2ccncc2)c(-c2ccc(F)cc2)nn1CC(=O)NCCc1ccc(Oc2ccccc2)cc1 [Example B-2286]	–	–	–	IC50 (human p38 kinase alpha; [4]): 17 nM; IC50 (TNF-α [2]; TNF production, LPS-stimulated human U937 cells, read-out: U937 Cell IC50): 780 nM; Mouse LPS Model % TNF inhib @ dose @ predose time (TNF alpha; 30 mpk oral gavage, 1 h before LPS challenge): 25% @ 30 mpk @ -1h
OCCn1cc(-c2ccnc(/C=C/c3ccc(F)cc3)c2)c(-c2ccc(F)cc2)n1 [Example A-270, (E)-3-(4-fluorophenyl)-4-[2-[2-(4-fluorophenyl)ethenyl]-4-pyridinyl]-1H-pyrazole-1-ethanol]	53	347	15	–
Cn1nc(-c2ccc(F)cc2)c(-c2ccncc2)c1C(O)c1ccccc1 (stereo not drawn) [Example A-217, 3-(4-fluorophenyl)-1-methyl -α-phenyl-4-(4-pyridinyl)-1H-pyrazole-5-methanol]	9	349	–	IC50 (human p38 kinase alpha; [11]): 697 nM
CC(Nc1cc(-c2c[nH]nc2-c2ccc(F)cc2)ccn1)c1ccc(F)cc1 (stereo not shown) [Example A-253, N-[1-(4-fluorophenyl)ethyl]-4-[3-(4-fluorophenyl)-1H-pyrazol-4-yl]-2-pyridinamine]	61	4.4	< 1	–
OCCn1cc(-c2ccnc(CCc3ccc(F)cc3)c2)c(-c2ccc(F)cc2)n1 [Example A-272, 3-(4-fluorophenyl)-4-[2-[2-(4-fluorophenyl)ethyl]-4-pyridinyl]-1H-pyrazole-1-ethanol]	-8	583	–	IC50 (human p38 kinase alpha; [11]): 73 nM
CC[C@H](C)CNc1cc(-c2c[nH]nc2-c2ccc(Cl)cc2)ccn1 [Example A-245, (S)-4-[3-(4-chlorophenyl)-1H-pyrazol-4-yl]-N-(2-methylbutyl)-2-pyridinamine]	65	33.7	< 1	–
FC(F)(F)c1cccc(-c2n[nH]cc2-c2ccncc2)c1 [Example A-237, 4-[3-[3-(trifluoromethyl)phenyl]-1H-pyrazol-4-yl]pyridine]	60	87	93	–
Fc1ccc(-c2n[nH]cc2-c2ccnc(-c3c[nH]nc3-c3ccc(F)cc3)c2)cc1 [Example A-265, 2,4-bis[3-(4-fluorophenyl)-1H-pyrazol-4-yl]pyridine]	32	602	< 100	–
Cn1cc(-c2ccncc2)c(-c2ccc(Br)cc2)n1 [Example A-243, 4-[3-(4-bromophenyl)-1-methyl-1H-pyrazol-4-yl]pyridine]	82	–	729	–
Cn1cc(-c2ccncc2)c(-c2ccc(Cl)cc2)n1 [Example A-232, 4-[3-(4-chlorophenyl)-1-methyl-1H-pyrazol-4-yl]pyridine]	96	–	48	–
Clc1ccc(-c2n[nH]cc2-c2ccncc2)cc1 [Example A-230, 4-[3-(4-chlorophenyl)-1H-pyrazol-4-yl]pyridine]	96	–	178	IC50 (human p38 kinase alpha; [11]): 420 nM
Fc1ccc(-c2n[nH]cc2-c2ccnc(F)c2)cc1 [Example A-249, 2-fluoro-4-[3-(4-fluorophenyl)-1H-pyrazol-4-yl]pyridine]	86	–	432	–
Brc1ccc(-c2n[nH]cc2-c2ccncc2)cc1 [Example A-241, 4-[3-(4-bromophenyl)-1H-pyrazol-4yl]pyridine]	87	–	338	–
O=C(NCc1[nH]nc(-c2ccc(F)cc2)c1-c1ccncc1)c1c(F)cc(F)cc1F [Example B-0051]	–	–	–	inhibition in vivo at 3 mg/kg (TNF-α [1]; 4 h, 4h): 79%; IC50 (TNF-α [2]; [5]): 2150 nM; inhibition in vivo at 100 mg/kg (TNF alpha; [10]): 47%

Source: patent US6525059B1, “Substituted pyrazoles as p38 kinase inhibitors” (G. D. Searle & Company, priority 1998, dated 2003)
